This data set in a line: Fluorescence excitation/emission maxima and relative response per gram (luminescence spectrometer). In kind it is physicochemical. As to the method: The appropriate alkyl or aryl amine (0.05 moles) was weighed into a 100 mL round-bottom flask equipped with a magnetic stirrer and containing 15 mL of dry methanol. While stirring, the appropriate dialkyl/diaryl itaconate (0.05 moles/primary amine moiety) dissolved in 15 mL of dry methanol was added dropwise over a period of 10 min. In some cases, a moderate exotherm was noted. The reaction was allowed to stir at RT for 1 h followed by refluxing for 8-10 h. The final product was obtained by removal of the solvent with a Buchi roto-evaporator to give a solid, liquid or syrup with yields ranging from 75-98%. See Table 2 in the Examples and FIGS. 3A-3B for their structures. These final products were characterized by FTIR, ^1H—, ^13C-NMR. Their UV-vis/fluorescence properties were evaluated with a fluorospectrometer (Spectramax from Molecular Devices) yielding data as described in Table 2 in the Examples.
Itaconic acid (Sigma-Aldrich) (0.05 moles/primary amine moiety) was weighed into a 100 mL round-bottom flask equipped with a magnetic stirrer. While stirring, the appropriate alkyl or aryl amine (0.05 moles) was added dropwise over a period of 10 min. […] The flask and reaction mixture was surmounted by a reflux condenser and immersed in an oil bath and heated at 125° C. for 2-5 h. The formation of water condensate from the reaction can be noticed in the condenser. A 25 mL portion of dry methanol is then added and the reaction mixture is refluxed for 1 h. Removal of solvent on a Buchi roto-evaporator produces the desired pyrrolidone product as an oil, syrup or solid in yields ranging from 59-95%. These final products were characterized by using a Thomas-Hoover capillary melting point apparatus, FTIR and ^1H—, ^13C-NMR. Their UV-vis/fluorescence properties were evaluated with a fluorescence spectrometer (Spectramax from Molecular Devices) yielding data as described in Table 2.
Fluorescence data was acquired with a Perkin-Elmer LS50B Luminescence spectrometer. Constant slit widths (Both excitation and emission—3 nm) were used and the concentrations were adjusted to give on scale emission responses. Emission responses were divided by concentration to give response per gram and multiplied by a scaling factor chosen to set the relative response of the standard, fluorescein-Na, to 1,000,000.

Setting [1] is: scaled so that fluorescein-Na = 1,000,000.
[2] abbreviates: peak 1, fluorescein-Na = 1,000,000.
[3] abbreviates: peak 2, fluorescein-Na = 1,000,000.

The values that follow come from patent US10968176B2, “Pyrrolidone derivatives, oligomers and polymers” (NanoSynthons LLC, priority 2014, dated 2021).

Read-outs that look alike come from different tables or passages of the source.

Consider `c1ccc(C2=NCCN2)cc1` [2-Phenyl-2-imidazoline, reference compound], for which the “Emission Max” value came to 400 nm and the “Excitation Max” value is 340 nm. The “Relative Response/g” value under setting [1] was determined as 50.1.

For `O=C1CCC(C(=O)O)N1` (stereo not drawn) [2-Pyrrolidone-5-carboxylic acid, reference compound], the “Emission Max” value was 385 nm and the “Excitation Max” value amounted to 245 nm. Further, under setting [1], the “Relative Response/g” value is 11.8.

As to `COC(=O)C1CC(=O)N(CCSSCCN2CC(C(=O)OC)CC2=O)C1` (stereo not drawn) [Compound 31], the “Emission Max” value is 350 nm and the “Excitation Max” value amounted to 300 nm. Moreover, the “Relative Response/g” value under setting [1] is on record as 18.7.

Take `COC(=O)C1CC(=O)N(CCNC(=O)C2CC(=O)N(CCSSCCN3CC(C(=O)NCCN4CC(C(=O)OC)CC4=O)CC3=O)C2)C1` (stereo not drawn) [Compound 33]: the “Emission Max” value turned out to be 380 nm and the “Excitation Max” value was 320 nm. The “Relative Response/g” value under setting [1] was determined as 391.7.

For the compound `COC(=O)C1CC(=O)N(CCNC(=O)C2CC(=O)N(CCNC(=O)C3CC(=O)N(CCSSCCN4CC(C(=O)NCCN5CC(C(=O)NCCN6CC(C(=O)OC)CC6=O)CC5=O)CC4=O)C3)C2)C1` (stereo not drawn) [Compound 35], the “Emission Max” value turned out to be 301 nm and the “Excitation Max” value stood at 277 nm. The “Relative Response/g” value under setting [1] is reported as 5.8.

Take `COC(=O)C1CC(=O)N(CCNC(=O)C2CC(=O)N(CCNC(=O)C3CC(=O)N(CCNC(=O)C4CC(=O)N(CCSSCCN5CC(C(=O)NCCN6CC(C(=O)NCCN7CC(C(=O)NCCN8CC(C(=O)OC)CC8=O)CC7=O)CC6=O)CC5=O)C4)C3)C2)C1` (stereo not drawn) [Compound 37]: the “Emission Max” value (peak 1) came to 302 nm and the “Emission Max” value (peak 2) turned out to be 565 nm. Besides, the “Excitation Max” value amounted to 268 nm (peak 1) and 260 nm (peak 2). The “Relative Response/g” value by setting is: under setting [2], 7.0; under setting [3], 6.5.

Consider `COC(=O)C1CC(=O)N(CCN2CC(C(=O)OC)CC2=O)C1` (stereo not drawn) [Compound 38], for which the “Emission Max” value was 410 nm and the “Excitation Max” value is recorded as 335 nm. Besides, under setting [1], the “Relative Response/g” value is listed as 2.7.

`NCCNC(=O)C1CC(=O)N(CCN2CC(C(=O)NCCN)CC2=O)C1` (stereo not drawn) [Compound 39]: the “Emission Max” value reads like this: (peak 1) 415 nm; (peak 2) 420 nm. Besides, the “Excitation Max” value by setting is: (peak 1) 355 nm; (peak 2) 245 nm. Moreover, the “Relative Response/g” value stood at 37.8 under setting [2] and 11.1 under setting [3].

Consider `COC(=O)C1CC(=O)N(CCNC(=O)C2CC(=O)N(CCN3CC(C(=O)NCCN4CC(C(=O)OC)CC4=O)CC3=O)C2)C1` (stereo not drawn) [Compound 40], for which the “Emission Max” value was 390 nm and the “Excitation Max” value was determined as 305 nm. Besides, the “Relative Response/g” value under setting [1] is 66.4.

Turning to `NCCNC(=O)C1CC(=O)N(CCNC(=O)C2CC(=O)N(CCN3CC(C(=O)NCCN4CC(C(=O)NCCN)CC4=O)CC3=O)C2)C1` (stereo not drawn) [Compound 41], the “Emission Max” value runs as follows: (peak 1) 390 nm; (peak 2) 455 nm. Also, the “Excitation Max” value is recorded as 340 nm (peak 1) and 285 nm (peak 2). The “Relative Response/g” value amounted to 62.7 under setting [2] and 18.7 under setting [3].

As to `COC(=O)C1CC(=O)N(CCNC(=O)C2CC(=O)N(CCNC(=O)C3CC(=O)N(CCN4CC(C(=O)NCCN5CC(C(=O)NCCN6CC(C(=O)OC)CC6=O)CC5=O)CC4=O)C3)C2)C1` (stereo not drawn) [Compound 42], the “Emission Max” value is recorded as 405 nm and the “Excitation Max” value came out at 335 nm. For the same compound, under setting [1], the “Relative Response/g” value is given as 30.7.

With `NCCNC(=O)C1CC(=O)N(CCNC(=O)C2CC(=O)N(CCNC(=O)C3CC(=O)N(CCN4CC(C(=O)NCCN5CC(C(=O)NCCN6CC(C(=O)NCCN)CC6=O)CC5=O)CC4=O)C3)C2)C1` (stereo not drawn) [Compound 43], the “Emission Max” value was determined as 440 nm and the “Excitation Max” value is recorded as 355 nm. Further, under setting [1], the “Relative Response/g” value came to 22.8.

As to `COC(=O)C1CC(=O)N(CCNC(=O)C2CC(=O)N(CCNC(=O)C3CC(=O)N(CCNC(=O)C4CC(=O)N(CCN5CC(C(=O)NCCN6CC(C(=O)NCCN7CC(C(=O)NCCN8CC(C(=O)OC)CC8=O)CC7=O)CC6=O)CC5=O)C4)C3)C2)C1` (stereo not drawn) [Compound 44], the “Emission Max” value was 450 nm and the “Excitation Max” value is reported as 350 nm. Also, under setting [1], the “Relative Response/g” value was 14.5.

Take `O=C([O-])c1ccccc1-c1c2ccc(=O)cc-2oc2cc([O-])ccc12.[Na+].[Na+]` [Fluorescein-Na, reference compound]: the “Emission Max” value is given as 510 nm and the “Excitation Max” value came to 470 nm. For the same compound, under setting [1], the “Relative Response/g” value is recorded as 1,000,000.0.
